The values below come from ChEMBL document CHEMBL1933065, “Synthesis and antifungal evaluation of pyrido[1,2-a]indole-1,4-diones and benzo[f]pyrido[1,2-a]indole-6,11-diones” (2012).

Converted amounts (≈) assume the structure as drawn.

Type in all cases: functional
One test relates to Candida albicans. Nature of the test: Antifungal activity against Candida albicans Berkout KCCM 50235 after 1 day by standard two fold broth dilution method. To be noted: Berkout KCCM 50235, 24 h.
The next test deals with Candida tropicalis. Briefly: Antifungal activity against Candida tropicalis Berkout KCCM 50662 after 1 day by two fold broth dilution method. To be noted: Berkout KCCM 50662, 24 h.
Another test deals with Pichia kudriavzevii. Nature of the test: Antifungal activity against Candida krusei Berkout KCCM 11655 after 1 day by two fold broth dilution method. The settings on record: Berkout KCCM 11655, 24 h. (In broth dilution the organism is exposed to a series of concentrations in liquid medium.)
A further test relates to Cryptococcus neoformans. Briefly: Antifungal activity against Cryptococcus neoformans Berkout KCCM 50564 after 1 day by two fold broth dilution method. The settings on record: Berkout KCCM 50564, 24 h.
A further test relates to Aspergillus niger. Briefly: Antifungal activity against Aspergillus niger KCTC 1231 after 2 days by two fold broth dilution method. To be noted: KCTC 1231, 48 h.
The subject of a further test is Aspergillus flavus. Nature of the test: Antifungal activity against Aspergillus flavus KCCM 11899 after 2 days by two fold broth dilution method. To be noted: KCCM 11899, 48 h.

For orientation: MIC means the lowest concentration that inhibits growth of the organism. On to `CCOC(=O)c1c2c(n3ccccc13)C(=O)c1ccccc1C2=O`, for which the MIC with Candida albicans was over 100 µg/mL; in the test with Candida tropicalis, 25 µg/mL (≈ 78.3 µM); against Pichia kudriavzevii it was 12.5 µg/mL (≈ 39.1 µM); in the test with Cryptococcus neoformans, 25 µg/mL (≈ 78.3 µM); in the test on Aspergillus niger, 12.5 µg/mL (≈ 39.1 µM); against Aspergillus flavus, 6.3 µg/mL (≈ 19.7 µM).

As for `Cc1ccn2c3c(c(C)c2c1)C(=O)c1ccccc1C3=O`, the MIC against Candida albicans came out at 6.3 µg/mL (≈ 22.9 µM); against Candida tropicalis, 12.5 µg/mL (≈ 45.4 µM); in the test on Pichia kudriavzevii, 50 µg/mL (≈ 182 µM); in the test with Cryptococcus neoformans, 12.5 µg/mL (≈ 45.4 µM); in the test with Aspergillus niger it was 3.2 µg/mL (≈ 11.6 µM); against Aspergillus flavus, 25 µg/mL (≈ 90.8 µM).

`COC(=O)c1c2c(n3ccc(OC)cc13)C(=O)c1ccccc1C2=O`: the MIC was 25 µg/mL (≈ 74.6 µM) against Candida albicans; 50 µg/mL (≈ 149 µM) in the test on Candida tropicalis; 50 µg/mL (≈ 149 µM) against Pichia kudriavzevii; 25 µg/mL (≈ 74.6 µM) against Cryptococcus neoformans; 3.2 µg/mL (≈ 9.54 µM) in the test with Aspergillus niger; 12.5 µg/mL (≈ 37.3 µM) against Aspergillus flavus.
